Results as given in patent US20140045873A1, “NOVEL MICROBIOCIDES” (SYNGENTA PARTICIPATIONS AG, priority 2010, published 2014).
Like-named read-outs stand apart in the source and are kept apart here.

Assays:
[1] = tested on: Mycosphaerella graminicola (Septoria tritici); assay: Mycosphaerella graminicola (Septoria tritici) / liquid culture (Septoria blotch); assay type: cell-based; settings: Zymoseptoria tritici; 200 ppm, liquid culture, PDB, 24° C., 4-5 days after application; read-out: control of Mycosphaerella graminicola (inhibition of growth, photometric)
Pythium ultimum = Pythium ultimum / liquid culture (seedling damping off); assay type: cell-based; settings: Globisporangium ultimum, potato dextrose broth, 24° C., 2-3 days after application, read-out: control of Pythium ultimum (inhibition of growth, photometric)
[2] = tested on: Phaeosphaeria nodorum (Septoria nodorum); settings: Parastagonospora nodorum, in Triticum aestivum, foliar, read-out: control of Phaeosphaeria nodorum (percent disease control compared to untreated)
[3] = tested on: Puccinia recondita f. sp. tritici; settings: in Triticum aestivum, foliar, read-out: control of Puccinia recondita f. sp. tritici (percent disease control compared to untreated)
Gaeumannomyces graminis = Gaeumannomyces graminis / liquid culture (take-all of cereals); assay type: cell-based; settings: 200 ppm, liquid culture, PDB, 24° C., 4-5 days after application, read-out: control of Gaeumannomyces graminis (inhibition of growth, photometric)
[4] = tested on: Puccinia recondita f. sp. tritici; settings: in Triticum aestivum, foliar, read-out: control of Puccinia recondita f. sp. tritici (percent disease control compared to untreated); remark: listed apart in the source
Pyrenophora teres = settings: in Hordeum vulgare, foliar, read-out: control of Pyrenophora teres (disease control compared to untreated)
[5] = tested on: Mycosphaerella arachidis (Cercospora arachidicola); assay: Mycosphaerella arachidis (Cercospora arachidicola) / liquid culture (early leaf spot); assay type: cell-based; settings: 200 ppm, liquid culture, PDB, 24° C., 4-5 days after application, read-out: control of Mycosphaerella arachidis (inhibition of growth, photometric)
[6] = tested on: Glomerella lagenarium (Colletotrichum lagenarium); assay: Glomerella lagenarium (Colletotrichum lagenarium) / liquid culture (anthracnose); assay type: cell-based; settings: Colletotrichum orbiculare; 200 ppm, liquid culture, PDB, 24° C., 3-4 days after application; read-out: control of Glomerella lagenarium (inhibition of growth, photometric)
[7] = tested on: Thanatephorus cucumeris (Rhizoctonia solani); settings: read-out: control of Thanatephorus cucumeris (inhibition of growth, photometric)
[8] = tested on: Monographella nivalis (Microdochium nivale); assay: Monographella nivalis (Microdochium nivale) / liquid culture (foot rot cereals); assay type: cell-based; settings: PDB, 24° C., 4-5 days after application, read-out: control of Monographella nivalis (inhibition of growth, photometric)
Alternaria solani = Alternaria solani / tomato / leaf disc (early blight); assay type: in vivo; settings: foliar, tomato leaf disks cv. Baby, inoculated 2 days after application, assessed 5-7 days after application, read-out: control of Alternaria solani (percent disease control compared to untreated)
Procedure: The inoculated leaf disks were incubated at 23° C./21° C. […].44

[9] = tested on: Botryotinia fuckeliana (Botrytis cinerea); assay: Botryotinia fuckeliana (Botrytis cinerea) / liquid culture (gray mould); assay type: cell-based; settings: Vogels broth, 24° C., 3-4 days after application, read-out: control of Botryotinia fuckeliana (inhibition of growth, photometric)
From the text: Botryotinia Fuckeliana (Botrytis cinerea)/Liquid Culture (Gray Mould): Conidia of the fungus from cryogenic storage were directly mixed into nutrient broth (Vogels broth). […].45

C/C(=N\OCCCc1cccc(-c2nc(C)cc(C)n2)n1)c1cccc(C)n1 [P.05]
≥ 80%: inhibition at 200 ppm [1] | inhibition at 200 ppm (Pythium ultimum) | pest or weed control at 200 ppm [2] | pest or weed control at 200 ppm [3] | inhibition at 200 ppm (Gaeumannomyces graminis) | pest or weed control at 200 ppm [4] | pest or weed control at 200 ppm (Pyrenophora teres) | inhibition at 200 ppm [5] | inhibition at 200 ppm [6] | inhibition at 200 ppm [7]

COc1cc(C)nc(-c2cccc(CCCO/N=C(\C)c3cc(C)cc(C)n3)n2)c1 [P.13]
≥ 80%: inhibition at 200 ppm [8] | pest or weed control at 200 ppm (Alternaria solani) | inhibition at 200 ppm [1] | inhibition at 200 ppm (Pythium ultimum) | pest or weed control at 200 ppm [2] | pest or weed control at 200 ppm [3] | inhibition at 200 ppm (Gaeumannomyces graminis) | pest or weed control at 200 ppm [4] | pest or weed control at 200 ppm (Pyrenophora teres) | inhibition at 200 ppm [5] | inhibition at 200 ppm [6] | inhibition at 200 ppm [9]

C/C(=N\OCCCc1cccc(-c2cc(Br)cc(C)n2)n1)c1cccc(C)n1 [P.18]
≥ 80%: inhibition at 200 ppm [8] | inhibition at 200 ppm [1] | inhibition at 200 ppm (Pythium ultimum) | pest or weed control at 200 ppm [2] | pest or weed control at 200 ppm [3] | inhibition at 200 ppm (Gaeumannomyces graminis) | pest or weed control at 200 ppm [4] | pest or weed control at 200 ppm (Pyrenophora teres) | inhibition at 200 ppm [5] | inhibition at 200 ppm [6]

C/C(=N\OCCCc1cccc(-c2cc(C)cc(C)n2)n1)c1cccc(C)n1 [P.19]
≥ 80%: inhibition at 200 ppm [1] | inhibition at 200 ppm (Pythium ultimum) | pest or weed control at 200 ppm [2] | pest or weed control at 200 ppm [3] | inhibition at 200 ppm (Gaeumannomyces graminis) | pest or weed control at 200 ppm [4] | pest or weed control at 200 ppm (Pyrenophora teres) | inhibition at 200 ppm [5]

C/C(=N\OCCCc1cccc(-c2cccc(C)n2)n1)c1cccc(C)n1 [P.21]
≥ 80%: pest or weed control at 200 ppm (Alternaria solani) | inhibition at 200 ppm [1] | inhibition at 200 ppm (Pythium ultimum) | pest or weed control at 200 ppm [2] | pest or weed control at 200 ppm [3] | inhibition at 200 ppm (Gaeumannomyces graminis) | pest or weed control at 200 ppm [4] | pest or weed control at 200 ppm (Pyrenophora teres) | inhibition at 200 ppm [5] | inhibition at 200 ppm [6] | inhibition at 200 ppm [9]

CON=C(C)c1ccc(-c2cccc(CCCO/N=C(\C)c3cccc(C)n3)n2)nc1C [P.22]
≥ 80%: pest or weed control at 200 ppm (Alternaria solani) | inhibition at 200 ppm [1] | pest or weed control at 200 ppm [2] | pest or weed control at 200 ppm [3] | inhibition at 200 ppm (Gaeumannomyces graminis) | pest or weed control at 200 ppm [4] | pest or weed control at 200 ppm (Pyrenophora teres) | inhibition at 200 ppm [5] | inhibition at 200 ppm [6] | inhibition at 200 ppm [9]

C=CCOc1cc(C)nc(-c2cccc(CCCO/N=C(\C)c3cccc(C)n3)n2)c1 [P.25]
≥ 80%: inhibition at 200 ppm [8] | inhibition at 200 ppm [1] | inhibition at 200 ppm (Pythium ultimum) | pest or weed control at 200 ppm [2] | pest or weed control at 200 ppm [3] | inhibition at 200 ppm (Gaeumannomyces graminis) | pest or weed control at 200 ppm [4] | pest or weed control at 200 ppm (Pyrenophora teres) | inhibition at 200 ppm [5] | inhibition at 200 ppm [6] | inhibition at 200 ppm [7] | inhibition at 200 ppm [9]

CCCOc1cc(C)nc(-c2cccc(CCCO/N=C(\C)c3cccc(C)n3)n2)c1 [P.26]
≥ 80%: inhibition at 200 ppm [8] | inhibition at 200 ppm [1] | pest or weed control at 200 ppm [2] | pest or weed control at 200 ppm [3] | inhibition at 200 ppm (Gaeumannomyces graminis) | pest or weed control at 200 ppm [4] | pest or weed control at 200 ppm (Pyrenophora teres) | inhibition at 200 ppm [5] | inhibition at 200 ppm [6] | inhibition at 200 ppm [7] | inhibition at 200 ppm [9]

CCOc1cc(C)nc(-c2cccc(CCCO/N=C(\C)c3cc(C)cc(C)n3)n2)c1 [P.28]
≥ 80%: inhibition at 200 ppm [8] | inhibition at 200 ppm [1] | inhibition at 200 ppm (Pythium ultimum) | pest or weed control at 200 ppm [2] | pest or weed control at 200 ppm [3] | inhibition at 200 ppm (Gaeumannomyces graminis) | pest or weed control at 200 ppm [4] | pest or weed control at 200 ppm (Pyrenophora teres) | inhibition at 200 ppm [5] | inhibition at 200 ppm [6] | inhibition at 200 ppm [7] | inhibition at 200 ppm [9]

C#CCOc1cc(C)nc(-c2cccc(CCCO/N=C(\C)c3cc(C)cc(C)n3)n2)c1 [P.29]
≥ 80%: inhibition at 200 ppm [8] | pest or weed control at 200 ppm (Alternaria solani) | inhibition at 200 ppm [1] | pest or weed control at 200 ppm [2] | pest or weed control at 200 ppm [3] | inhibition at 200 ppm (Gaeumannomyces graminis) | pest or weed control at 200 ppm [4] | pest or weed control at 200 ppm (Pyrenophora teres) | inhibition at 200 ppm [5] | inhibition at 200 ppm [6] | inhibition at 200 ppm [7] | inhibition at 200 ppm [9]

C=CCOc1cc(C)nc(-c2cccc(CCCO/N=C(\C)c3cc(C)cc(C)n3)n2)c1 [P.30]
≥ 80%: inhibition at 200 ppm [8] | inhibition at 200 ppm [1] | pest or weed control at 200 ppm [2] | pest or weed control at 200 ppm [3] | inhibition at 200 ppm (Gaeumannomyces graminis) | pest or weed control at 200 ppm [4] | pest or weed control at 200 ppm (Pyrenophora teres) | inhibition at 200 ppm [5] | inhibition at 200 ppm [6] | inhibition at 200 ppm [7] | inhibition at 200 ppm [9]

CCCOc1cc(C)nc(-c2cccc(CCCO/N=C(\C)c3cc(C)cc(C)n3)n2)c1 [P.31]
≥ 80%: inhibition at 200 ppm [8] | inhibition at 200 ppm [1] | pest or weed control at 200 ppm [2] | pest or weed control at 200 ppm [3] | inhibition at 200 ppm (Gaeumannomyces graminis) | pest or weed control at 200 ppm [4] | pest or weed control at 200 ppm (Pyrenophora teres) | inhibition at 200 ppm [5] | inhibition at 200 ppm [6] | inhibition at 200 ppm [7] | inhibition at 200 ppm [9]

CCc1cc(SC)c(C)c(-c2cccc(CCCO/N=C(\C)c3cccc(C)n3)n2)n1 [P.40]
≥ 80%: inhibition at 200 ppm [8] | inhibition at 200 ppm [1] | pest or weed control at 200 ppm [2] | pest or weed control at 200 ppm [3] | inhibition at 200 ppm (Gaeumannomyces graminis) | pest or weed control at 200 ppm [4] | pest or weed control at 200 ppm (Pyrenophora teres) | inhibition at 200 ppm [5] | inhibition at 200 ppm [6] | inhibition at 200 ppm [7] | inhibition at 200 ppm [9]

CCc1ccc(C)c(-c2cccc(CCCO/N=C(\C)c3cccc(C)n3)n2)n1 [P.42]
≥ 80%: inhibition at 200 ppm [8] | pest or weed control at 200 ppm (Alternaria solani) | inhibition at 200 ppm [1] | pest or weed control at 200 ppm [2] | pest or weed control at 200 ppm [3] | inhibition at 200 ppm (Gaeumannomyces graminis) | pest or weed control at 200 ppm [4] | pest or weed control at 200 ppm (Pyrenophora teres) | inhibition at 200 ppm [5] | inhibition at 200 ppm [6] | inhibition at 200 ppm [7] | inhibition at 200 ppm [9]

COc1cc(C)nc(-c2ccc(OC)c(CCCO/N=C(\C)c3cccc(C)n3)n2)c1 [P.43]
≥ 80%: inhibition at 200 ppm [8] | inhibition at 200 ppm [1] | inhibition at 200 ppm (Pythium ultimum) | pest or weed control at 200 ppm [2] | pest or weed control at 200 ppm [3] | inhibition at 200 ppm (Gaeumannomyces graminis) | pest or weed control at 200 ppm [4] | pest or weed control at 200 ppm (Pyrenophora teres) | inhibition at 200 ppm [5] | inhibition at 200 ppm [6] | inhibition at 200 ppm [7] | inhibition at 200 ppm [9]

C/C(=N\OCCCc1ccnc(-c2cccc(C)n2)n1)c1cccc(C)n1 [P.45, E-1-(6-methyl-2-pyridyl)-N-[3-[2-(6-methyl-2-pyridyl)pyrimidin-4-yl]propoxy]ethanimine]
≥ 80%: inhibition at 200 ppm [8] | inhibition at 200 ppm [1] | inhibition at 200 ppm (Pythium ultimum) | pest or weed control at 200 ppm [2] | pest or weed control at 200 ppm [3] | pest or weed control at 200 ppm [4] | pest or weed control at 200 ppm (Pyrenophora teres) | inhibition at 200 ppm [5] | inhibition at 200 ppm [6] | inhibition at 200 ppm [7] | inhibition at 200 ppm [9]
